The values that follow come from ChEMBL document CHEMBL4725268, “Anticonvulsant and analgesic in neuropathic pain activity in a group of new aminoalkanol derivatives” (Bioorg Med Chem Lett, 2020).

What is called ED50 is the midpoint of the dose-response relation. In general, TD50 refers to the dose at which the toxic effect under study appears in half of the subjects. The half-life is how long it takes for the measured level to halve. A high value points to slow decline. The term microsomal CLint denotes a measure of how fast metabolising enzymes remove a compound, apart from limits set by blood flow. A higher microsomal CLint goes with faster metabolism.

For series [1], the system named is Mus musculus. Description: Anticonvulsant activity in ip dosed mouse assessed as protection against current-induced seizure by maximal electroshock seizure test. The format is functional. On the technique in general: In the maximal electroshock model the usual endpoint is tonic extension of the hind limbs.
Series [2] is described as follows: Toxicity in mouse assessed as lethality at 50 mg/kg, ip. The settings on record: in vivo. The class given is organism-based.
A short description of series [3]: Toxicity in mouse assessed as lethality at 70 mg/kg, ip. The class given is organism-based. The settings on record: in vivo.
Series [4] can be described thus: Toxicity in ip dosed mouse assessed as motor impairment by rotarod test. The format is organism-based. To be noted: in vivo.
Series [5] in a line: Protection index, ratio of TD50 for toxicity in ip dosed mouse to ED50 for anticonvulsant activity in ip dosed mouse. The format is organism-based. To be noted: in vivo, read-out: PI.
Series [6] concerns the target T1, 5-hydroxytryptamine receptor 1A (Homo sapiens) (UniProt P08908).
T1 sequence (whole entry): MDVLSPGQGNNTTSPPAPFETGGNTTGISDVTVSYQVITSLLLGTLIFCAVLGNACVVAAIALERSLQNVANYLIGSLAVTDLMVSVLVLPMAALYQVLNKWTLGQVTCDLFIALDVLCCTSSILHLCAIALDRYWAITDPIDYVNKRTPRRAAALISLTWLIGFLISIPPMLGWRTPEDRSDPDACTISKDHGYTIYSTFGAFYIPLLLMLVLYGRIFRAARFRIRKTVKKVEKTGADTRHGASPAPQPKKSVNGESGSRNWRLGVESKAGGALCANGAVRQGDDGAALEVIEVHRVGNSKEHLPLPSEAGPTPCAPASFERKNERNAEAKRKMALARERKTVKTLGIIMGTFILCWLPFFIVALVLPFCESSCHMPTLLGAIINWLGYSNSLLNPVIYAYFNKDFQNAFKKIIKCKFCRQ
The series can be described thus: Binding affinity to 5-HT1A (unknown origin) at 10^-5 M. The settings on record: dose 1.0 10^-5M.

In series [7] the test system is Enterococcus faecalis. Description: Antimicrobial activity against Enterococcus faecalis ATCC 29212 assessed as reduction in bacterial growth at 0.195 to 100 ug/ml by serial dilution method. The format is organism-based. The settings on record: in vivo, dose 0.195-100 µg/ml.
In series [8] the test system is Escherichia coli. Description: Antimicrobial activity against Escherichia coli ATCC 25922 assessed as reduction in bacterial growth at 0.195 to 100 ug/ml by serial dilution method. The format is organism-based. To be noted: in vivo, dose 0.195-100 µg/ml.
Series [9] relates to Escherichia coli. The series can be described thus: Antimicrobial activity against Escherichia coli ATCC 35218 assessed as reduction in bacterial growth at 0.195 to 100 ug/ml by serial dilution method. The format is organism-based. The settings on record: in vivo, dose 0.195-100 µg/ml.
The subject of series [10] is Staphylococcus aureus. Description: Antimicrobial activity against Staphylococcus aureus ATCC 25923 assessed as reduction in bacterial growth at 0.195 to 100 ug/ml by serial dilution method. The settings on record: in vivo, dose 0.195-100 µg/ml. The format is organism-based.
In series [11] the test system is Staphylococcus aureus. The series can be described thus: Antimicrobial activity against clinical strain Staphylococcus aureus assessed as reduction in bacterial growth at 0.195 to 100 ug/ml by serial dilution method. The settings on record: in vivo, dose 0.195-100 µg/ml. The format is organism-based.
Series [12] relates to Salmonella enterica. The series can be described thus: Antimicrobial activity against Salmonella enterica ATCC 51957 assessed as reduction in bacterial growth at 0.195 to 100 ug/ml by serial dilution method. To be noted: in vivo, dose 0.195-100 µg/ml. The class given is organism-based.
In series [13] the test system is Bacteroides fragilis. Description: Antimicrobial activity against Bacteroides fragilis ATCC 25285 assessed as reduction in bacterial growth at 0.195 to 100 ug/ml by disk diffusion method. The class given is organism-based. To be noted: in vivo, dose 0.195-100 µg/ml.
Series [14] relates to Hoylesella loescheii. The series can be described thus: Antimicrobial activity against Prevotella loescheii ATCC 15930 assessed as reduction in bacterial growth at 0.195 to 100 ug/ml by disk diffusion method. The class given is organism-based, DSM 19665 = JCM 12249 = ATCC 15930. To be noted: in vivo, dose 0.195-100 µg/ml. On the technique in general: A growth-free zone around the sample is the usual read-out of agar diffusion tests.

The nature of series [15]: Antimicrobial activity against clinical strain Bifidobacterium assessed as reduction in bacterial growth at 0.195 to 100 ug/ml by disk diffusion method. The settings on record: dose 0.195-100 µg/ml.
The subject of series [16] is Clostridioides difficile. The series can be described thus: Antimicrobial activity against clinical strain Clostridium difficile assessed as reduction in bacterial growth at 0.195 to 100 ug/ml by disk diffusion method. The class given is organism-based. The settings on record: in vivo, dose 0.195-100 µg/ml.
Series [17] is described as follows: Drug metabolism in mouse microsome assessed as formation of monohydroxylated metabolite. The class given is ADME. To be noted: microsomes.
Series [18] is described as follows: Genotoxicity in Salmonella typhimurium TA100 assessed as number of revertant at 10 ug by AMES test (reference value: 64.3 to 130.7). The class given is toxicity, Salmonella enterica subsp. enterica serovar Typhimurium. To be noted: in vivo; dose 10 µg.
Series [19] can be described thus: Genotoxicity in Salmonella typhimurium TA100 assessed as number of revertant at 75 ug by AMES test (reference value: 64.3 to 130.7). The format is toxicity, Salmonella enterica subsp. enterica serovar Typhimurium. The settings on record: in vivo; dose 75 µg.
The nature of series [20]: Genotoxicity in Salmonella typhimurium TA100 assessed as number of revertant at 200 ug by AMES test (reference value: 64.3 to 130.7). The class given is toxicity, Salmonella enterica subsp. enterica serovar Typhimurium. To be noted: in vivo; dose 200 µg.
Series [21] is described as follows: Genotoxicity in Salmonella typhimurium TA100 assessed as number of revertant at 500 ug by AMES test (reference value: 64.3 to 130.7). The settings on record: in vivo; dose 500 µg. The class given is toxicity, Salmonella enterica subsp. enterica serovar Typhimurium.
A short description of series [22]: Genotoxicity in Salmonella typhimurium TA100 assessed as number of revertant at 750 ug by AMES test (reference value: 64.3 to 130.7). The class given is toxicity, Salmonella enterica subsp. enterica serovar Typhimurium. The settings on record: in vivo; dose 750 µg.
Series [23] is described as follows: Genotoxicity in Salmonella typhimurium TA100 assessed as mutagenic index at 10 ug by AMES test. The class given is toxicity, Salmonella enterica subsp. enterica serovar Typhimurium. To be noted: in vivo; dose 10 µg.
The nature of series [24]: Genotoxicity in Salmonella typhimurium TA100 assessed as mutagenic index at 75 ug by AMES test. The format is toxicity, Salmonella enterica subsp. enterica serovar Typhimurium. To be noted: in vivo; dose 75 µg.
A short description of series [25]: Genotoxicity in Salmonella typhimurium TA100 assessed as mutagenic index at 200 ug by AMES test. The class given is toxicity, Salmonella enterica subsp. enterica serovar Typhimurium. The settings on record: in vivo; dose 200 µg.
Series [26] is described as follows: Genotoxicity in Salmonella typhimurium TA100 assessed as mutagenic index at 500 ug by AMES test. The format is toxicity, Salmonella enterica subsp. enterica serovar Typhimurium. To be noted: in vivo; dose 500 µg.
Series [27] can be described thus: Genotoxicity in Salmonella typhimurium TA100 assessed as mutagenic index at 750 ug by AMES test. The format is toxicity, Salmonella enterica subsp. enterica serovar Typhimurium. To be noted: in vivo; dose 750 µg.
The nature of series [28]: Genotoxicity in Salmonella typhimurium TA98 assessed as number of revertant at 10 ug by AMES test (reference value: 8 to 8.3). The class given is toxicity, Salmonella enterica subsp. enterica serovar Typhimurium. The settings on record: in vivo; dose 10 µg.
Series [29] can be described thus: Genotoxicity in Salmonella typhimurium TA98 assessed as number of revertant at 75 ug by AMES test (reference value: 8 to 8.3). The format is toxicity, Salmonella enterica subsp. enterica serovar Typhimurium. The settings on record: in vivo; dose 75 µg.
Series [30] in a line: Genotoxicity in Salmonella typhimurium TA98 assessed as number of revertant at 200 ug by AMES test (reference value: 8 to 8.3). The format is toxicity, Salmonella enterica subsp. enterica serovar Typhimurium. To be noted: in vivo; dose 200 µg.
Series [31] is described as follows: Genotoxicity in Salmonella typhimurium TA98 assessed as number of revertant at 500 ug by AMES test (reference value: 8 to 8.3). To be noted: in vivo; dose 500 µg. The class given is toxicity, Salmonella enterica subsp. enterica serovar Typhimurium.
Series [32] in a line: Genotoxicity in Salmonella typhimurium TA98 assessed as number of revertant at 750 ug by AMES test (reference value: 8 to 8.3). The format is toxicity, Salmonella enterica subsp. enterica serovar Typhimurium. The settings on record: in vivo; dose 750 µg.
A short description of series [33]: Genotoxicity in Salmonella typhimurium TA98 assessed as mutagenic index at 10 ug by AMES test. The format is toxicity, Salmonella enterica subsp. enterica serovar Typhimurium. The settings on record: in vivo; dose 10 µg.
A short description of series [34]: Genotoxicity in Salmonella typhimurium TA98 assessed as mutagenic index at 75 ug by AMES test. The class given is toxicity, Salmonella enterica subsp. enterica serovar Typhimurium. To be noted: in vivo; dose 75 µg.
Series [35] can be described thus: Genotoxicity in Salmonella typhimurium TA98 assessed as mutagenic index at 200 ug by AMES test. The class given is toxicity, Salmonella enterica subsp. enterica serovar Typhimurium. The settings on record: in vivo; dose 200 µg.
Series [36] can be described thus: Genotoxicity in Salmonella typhimurium TA98 assessed as mutagenic index at 500 ug by AMES test. The format is toxicity, Salmonella enterica subsp. enterica serovar Typhimurium. The settings on record: in vivo; dose 500 µg.
Series [37] in a line: Genotoxicity in Salmonella typhimurium TA98 assessed as mutagenic index at 750 ug by AMES test. To be noted: in vivo; dose 750 µg. The format is toxicity, Salmonella enterica subsp. enterica serovar Typhimurium.
The nature of series [38]: in vitro. To be noted: mouse, microsomes.
Description: Metabolic stability in mouse microsome assessed as half life
Series [39] is described as follows: in vitro. To be noted: mouse, microsomes. This is another data set of the same source.
Description: Metabolic stability in mouse microsome assessed as intrinsic clearance
For series [40], the system named is Mus musculus. Description: Anticonvulsant activity in ip dosed albino mouse assessed as protection against 50 mA current-induced seizure by maximal electroshock seizure test. The format is functional.
The species named for series [41] is Mus musculus. Description: animal or person. To be noted: Swiss, ip.
Description: Anticonvulsant activity in ip dosed Swiss mouse assessed as protection against current-induced seizure by maximal electroshock seizure test

Structures are written as SMILES. Activity calls are given as the source filed them. The calls are words filed in the database; no cut-off is given here.

With `Cc1ccc(OCCCCN[C@H](C)CO)c(C)c1`, the ED50 in [1] was found to be 52.5 mg/kg. The Activity entry in [2], in series [3], in series [7], in [8], in series [9] and in series [10] was “Non-Toxic” in each case. For the same compound, the Activity result in [11], in series [12], in series [13], in [14], in series [15] and in series [16] was “Non-Toxic” each time. Further, the TD50 in [4] stood at 136 mg/kg. The selectivity ratio in series [5] amounted to 2.59. Further, the outcome in series [6] was inactive.

As for `Cc1ccc(OCCCN2CCCC(O)C2)c(C)c1` (racemic), the 50% effective dose (ED50) in series [1] worked out at 34.8 mg/kg. For the same compound, the Activity result in series [2] is reported as “Non-Toxic”; in series [18] it was 89.5; in series [19], 69.5; in series [20], 88.5; in [21], 81; in series [22], 3869.5. Moreover, the Activity was 6.3 in [28]; 8 in [29]; 6.7 in [30]; 4.7 in [31]; 3.3 in series [32]. Moreover, in [4], the TD50 was 108 mg/kg. In addition, the selectivity ratio in [5] worked out at 3.09. Further, in series [6], the result was inactive. Also, the Drug metabolism result in [17] was “Metabolite_Detected”. Besides, the Activity_index in series [23] was found to be 1.2; in [24], 1; in series [25], 1.2; in series [26], 1.1; in [27], 53.4; in series [33], 0.4. For the same compound, the Activity_index in series [34] stood at 0.8; in series [35], 1.2; in [36] it was 1; in series [37], 1. The compound further came in with a half-life in series [38] of 28.6 min. In series [39], this compound returned a microsomal CLint of 60.5 µL/min/mg.

Take `Cc1cccc(C)c1OCC(C)N` (racemic) [MEXILETINE]: the ED50 in series [40] was 1.2 mg/kg; in series [41] it was 11.9 mg/kg.
